Assay results from the supplement of paper PMC10307832.

Assays:
Experiment in all cases: relative viability (nuclei count vs DMSO), 5 days (fraction); higher = more cells survive
Ibrutinib + Pictilisib = compound: C=CC(=O)N1CCC[C@@H](n2nc(-c3ccc(Oc4ccccc4)cc3)c3c(N)ncnc32)C1 [Ibrutinib] + CS(=O)(=O)N1CCN(Cc2cc3nc(-c4cccc5[nH]ncc45)nc(N4CCOCC4)c3s2)CC1 [Pictilisib] (partner 1 µM)
Summary of the method: (§1)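 Dosing by pin tool came one day after lung cancer cell lines were seeded in 1536-well plates, using either one drug or a fixed anchor-drug dose plus five library-drug doses (not always all listed) in √10 steps. After 5 days, nuclei were counted on 4× images. Relative viability is treated-well nuclei count divided by vehicle-well nuclei count, and values are medians of duplicate plates.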

PAC-1 + Navitoclax = compound: C=CCc1cccc(/C=N/NC(=O)CN2CCN(Cc3ccccc3)CC2)c1O [PAC-1] + CC1(C)CCC(c2ccc(Cl)cc2)=C(CN2CCN(c3ccc(C(=O)NS(=O)(=O)c4ccc(N[C@H](CCN5CCOCC5)CSc5ccccc5)c(S(=O)(=O)C(F)(F)F)c4)cc3)CC2)C1 [Navitoclax] (partner 0.5 µM)
Summary of the method: as §1

PAC-1 + Linsitinib = compound: C=CCc1cccc(/C=N/NC(=O)CN2CCN(Cc3ccccc3)CC2)c1O [PAC-1] + C[C@]1(O)C[C@@H](c2nc(-c3ccc4ccc(-c5ccccc5)nc4c3)c3c(N)nccn32)C1 [Linsitinib] (partner 1 µM)
Summary of the method: as §1

Ibrutinib + Palbociclib = compound: C=CC(=O)N1CCC[C@@H](n2nc(-c3ccc(Oc4ccccc4)cc3)c3c(N)ncnc32)C1 [Ibrutinib] + CC(=O)c1c(C)c2cnc(Nc3ccc(N4CCNCC4)cn3)nc2n(C2CCCC2)c1=O [Palbociclib] (partner 0.5 µM)
Summary of the method: as §1

Cell Line	relative viability (Ibrutinib + Pictilisib; first compound 0.005 µM)	relative viability (Ibrutinib + Pictilisib; first compound 0.01581 µM)	relative viability (Ibrutinib + Pictilisib; first compound 0.05 µM)	relative viability (Ibrutinib + Pictilisib; first compound 0.1581 µM)	relative viability (Ibrutinib + Pictilisib; first compound 0.5 µM)	relative viability (PAC-1 + Navitoclax; first compound 0.02 µM)	relative viability (PAC-1 + Navitoclax; first compound 0.06325 µM)	relative viability (PAC-1 + Navitoclax; first compound 0.2 µM)	relative viability (PAC-1 + Navitoclax; first compound 2 µM)	relative viability (PAC-1 + Linsitinib; first compound 0.02 µM)	relative viability (PAC-1 + Linsitinib; first compound 0.06325 µM)	relative viability (PAC-1 + Linsitinib; first compound 0.2 µM)	relative viability (PAC-1 + Linsitinib; first compound 2 µM)	relative viability (Ibrutinib + Palbociclib; first compound 0.005 µM)	relative viability (Ibrutinib + Palbociclib; first compound 0.01581 µM)	relative viability (Ibrutinib + Palbociclib; first compound 0.05 µM)	relative viability (Ibrutinib + Palbociclib; first compound 0.1581 µM)	relative viability (Ibrutinib + Palbociclib; first compound 0.5 µM)
NCI-H23	0.319	0.458	0.562	0.391	0.395	0.569	0.891	0.793	0.881	0.534	0.574	0.564	0.505	0.484	0.465	0.456	0.53	0.506
NCI-H322M	0.431	0.562	0.597	0.374	0.467	1.23	1.27	1.28	1.23	0.907	0.889	0.817	0.928	0.472	0.463	0.479	0.469	0.399
NCI-H441	0.586	0.551	0.619	0.435	0.449	0.435	0.645	0.587	0.56	0.519	0.571	0.496	0.564	0.2	0.199	0.216	0.138	0.157
NCI-H460	0.331	0.365	0.313	0.19	0.256	1.1	1.14	0.922	1.09	0.701	0.81	0.78	0.405	0.167	0.19	0.197	0.149	0.202
NCI-H520	0.25	0.262	0.258	0.183	0.254	1.11	1.02	1.04	1.12	0.944	0.92	1	0.861	0.183	0.217	0.206	0.237	0.161
NCI-H647	0.28	0.418	0.357	0.323	–	1.23	1.09	1.16	1.2	1.05	1.19	1.2	0.807	0.334	0.385	0.305	0.374	0.538
NCI-H727	0.253	0.471	0.246	0.298	0.343	0.425	0.452	0.352	0.42	0.281	0.283	0.272	0.317	0.593	0.593	0.644	0.644	0.505
NCI-H838	0.343	0.38	0.514	0.472	0.543	1.08	1.12	1.08	1.21	1.02	0.982	0.925	1.15	0.178	0.209	0.202	0.202	0.234
NCI-H1355	–	0.474	0.481	0.26	0.343	0.866	0.961	0.965	0.962	0.74	0.89	0.806	0.803	–	0.362	0.359	0.422	0.295
NCI-H1395	0.611	0.555	0.538	0.562	0.655	1.21	1.16	1.32	1.32	1.02	1.15	0.842	0.958	0.55	0.672	0.648	0.623	0.612
NCI-H1437	0.346	0.413	0.428	0.359	0.443	1.04	1.12	1.01	0.775	0.986	1.02	0.911	0.71	0.336	0.307	0.307	0.235	0.374
NCI-H1651	0.502	0.482	0.466	0.627	0.643	0.924	1.12	1.06	1.09	0.823	0.933	0.992	1.12	0.529	0.5	0.533	0.489	0.51
NCI-H1666	0.388	0.358	0.31	0.409	0.235	1.14	0.915	0.933	1.04	0.986	0.789	0.983	0.891	0.647	0.692	0.639	0.631	0.659
NCI-H1734	0.354	0.446	0.43	0.491	0.388	0.826	0.832	0.813	0.881	0.845	0.885	0.928	1.02	0.374	0.332	0.384	0.346	0.357
NCI-H1755	0.418	0.421	0.424	0.389	0.362	0.959	0.954	0.986	0.989	1.01	1	0.94	0.982	0.473	0.442	0.467	0.455	0.495
NCI-H1792	0.286	0.25	0.23	0.295	0.242	0.613	0.563	0.621	0.681	0.648	0.602	0.534	0.579	–	0.593	0.757	–	0.683
NCI-H1793	–	0.466	0.323	0.357	0.274	0.453	0.46	0.535	0.461	0.728	1.01	1.21	0.96	0.251	0.247	0.238	0.31	0.243
NCI-H1915	–	0.978	0.891	0.609	1.02	0.449	0.794	0.751	0.767	1.09	1.09	1.02	1.07	0.519	0.517	0.554	0.506	0.532

Cell Line	relative viability (Ibrutinib + Pictilisib; first compound 0.005 µM)	relative viability (Ibrutinib + Pictilisib; first compound 0.01581 µM)	relative viability (Ibrutinib + Pictilisib; first compound 0.05 µM)	relative viability (Ibrutinib + Pictilisib; first compound 0.1581 µM)	relative viability (Ibrutinib + Pictilisib; first compound 0.5 µM)	relative viability (PAC-1 + Navitoclax; first compound 0.02 µM)	relative viability (PAC-1 + Navitoclax; first compound 0.06325 µM)	relative viability (PAC-1 + Navitoclax; first compound 0.2 µM)	relative viability (PAC-1 + Navitoclax; first compound 2 µM)	relative viability (PAC-1 + Linsitinib; first compound 0.02 µM)	relative viability (PAC-1 + Linsitinib; first compound 0.06325 µM)	relative viability (PAC-1 + Linsitinib; first compound 0.2 µM)	relative viability (PAC-1 + Linsitinib; first compound 2 µM)	relative viability (Ibrutinib + Palbociclib; first compound 0.005 µM)	relative viability (Ibrutinib + Palbociclib; first compound 0.01581 µM)	relative viability (Ibrutinib + Palbociclib; first compound 0.05 µM)	relative viability (Ibrutinib + Palbociclib; first compound 0.1581 µM)	relative viability (Ibrutinib + Palbociclib; first compound 0.5 µM)
NCI-H1944	0.305	0.334	0.308	0.317	0.316	1.03	1.04	0.954	1.04	1.17	1.05	1.12	1.06	0.297	0.285	0.273	0.301	0.255
NCI-H1975	0.264	0.271	0.234	0.313	0.105	1.12	1.2	1.12	1.06	0.917	0.908	0.921	0.894	0.546	0.446	0.502	0.457	0.17
NCI-H1993	0.777	0.7	0.139	–	0.871	0.85	0.814	0.837	0.95	0.735	0.797	0.745	0.701	0.388	0.56	1.64	0.714	0.466
NCI-H2009	0.593	0.846	0.742	0.468	0.759	1.16	1.18	1.22	1.16	1.16	1.21	1.17	1.15	0.136	0.214	0.183	0.169	0.288
NCI-H2023	0.165	0.308	0.207	0.25	0.206	0.981	0.963	0.953	1.02	0.642	0.615	0.512	0.876	0.33	0.292	0.346	0.41	0.311
NCI-H2085	0.432	0.473	0.48	0.369	0.417	1.1	1.08	1.12	1.16	0.891	0.936	0.943	1.04	0.467	0.469	0.425	0.47	0.44
NCI-H2087	0.686	0.878	0.973	0.339	0.862	1.15	0.991	0.965	0.998	1.18	0.931	0.899	0.875	0.243	0.217	0.161	–	–
NCI-H2126	–	0.469	0.454	0.399	0.43	0.884	0.886	0.87	0.854	0.696	0.703	0.692	0.694	0.348	0.322	0.34	0.342	0.345
NCI-H2228	0.316	0.486	0.276	0.433	0.386	0.98	1.12	0.893	0.785	0.575	0.787	0.603	0.694	0.912	0.687	0.697	0.947	0.779
NCI-H2347	0.648	0.672	0.587	0.299	0.535	0.817	0.871	0.698	0.865	0.97	1.02	0.894	0.986	0.391	0.386	0.478	0.492	0.428
NCI-H2405	0.33	0.384	0.282	–	0.485	0.891	0.969	0.855	1.08	0.949	0.918	0.899	1.08	0.49	0.514	–	–	0.525
NCI-H3122	0.563	0.61	0.69	0.375	0.533	0.975	1.02	1.01	0.993	1.03	1.01	0.992	1.03	0.188	0.178	0.184	0.176	0.196
PC-3 [JPC-3]	0.621	0.685	0.686	0.531	0.528	0.894	0.817	0.708	0.844	1.04	0.965	0.948	0.97	0.585	0.527	0.515	0.54	0.486
PC-14	0.72	0.621	0.558	0.88	0.101	0.968	0.975	0.959	1.03	0.967	1.03	0.91	0.925	0.527	0.495	0.576	0.575	0.172
RERF-LC-KJ	0.482	0.518	0.46	0.548	0.441	0.859	0.932	1.11	0.733	0.904	0.818	0.861	0.887	1.12	0.915	0.928	1.09	0.931
SK-LU-1	0.381	0.509	0.542	0.55	0.549	0.803	0.892	0.733	0.888	1.17	1.06	1.04	0.716	0.372	0.365	0.392	0.407	0.365
SW 1573	0.416	0.466	0.478	0.414	0.503	0.825	1.03	0.825	1.03	0.826	0.76	0.759	0.914	–	0.345	0.419	0.393	0.477
UMC-11	0.31	0.781	0.795	0.777	0.784	0.334	0.311	0.308	0.318	0.997	1.03	0.996	1.04	–	0.335	0.359	0.417	0.355
